Here are results for 29 molecules from patent US8188101B2 (AstraZeneca AB, priority 2008, dated 2012).

The experiment deals with Aβ42 release. The experiment is described as follows: Aβ release in cells stably expressing APPswe, Meso Scale Discovery electrochemiluminescence assay. The settings on record: Homo sapiens, SH-SY5Y, HEK or SH-SY5Y cells stably expressing APPswe, 4-6 hours incubation with test compound. It is filed as cell-based, Human. The procedure:
The level of activity of the compounds on Aβ release was tested using the following method:
Compounds were diluted in 100% DMSO and stored at […] prior to use. Human Embryonic Kidney (HEK) or Human Neuroblastoma (SH-SY5Y) cell lines stably expressing APP with the Swedish mutation (APPswe) were cultured using Dulbecco's Modified Eagles medium (DMEM) supplied with […] glucose, Na-pyruvate and GlutaMAX with 10% FBS, 100 U/ml penicillin-streptomycin (PEST) respectively, 1× non-essential amino acids (NEAA), […] Hepes, 100 μg/ml Zeocine. Cells at about 80% confluence were washed with PBS, detached from culture flasks using 1× Trypsin/EDTA diluted in PBS, re-suspended in cell media and plated in 384-well poly-d-lysine coated cell culture plates at about 10000-15000 cells/well, in 25 μL cell media. Optionally, cryo-preserved cells (frozen and stored at −140° C. in 90% cell media and 10% DMSO) were thawed, washed and plated as above. Next the cells were incubated for 15-24 h at 37° C. and 5% CO2, after which cell medium was changed. Fresh medium containing test compound diluted ×200 from prepared compound plate was added to the cells before further incubation for 4-6 hours at 37° C. and 5% CO2. After incubation with test compound the amount of Aβ peptides, including Aβ42, Aβ40, Aβ39, Aβ38 and Aβ37, secreted to the cell medium was analyzed using the electrochemiluminescence assay technology from Meso Scale Discovery Technology, in combination with specific antibodies raised against the different Aβ peptides. Potential cytotoxic effects of the compounds were usually assayed by measuring the ATP content (ViaLight) from cell lysate.
What is called IC50 is the point on the concentration scale where inhibition reaches its midpoint. Regarding `CC(=O)N1CCc2nc(Nc3ccc(-c4cnco4)cc3)nc(NC[C@@H]3CCCO3)c2C1` [Example 27, (S)-1-(2-(4-(Oxazol-5-yl)phenylamino)-4-((tetrahydrofuran-2-yl)methylamino)-7,8-dihydropyrido[4,3-d]pyrimidin-6(5H)-yl)ethanone], the IC50 is 316 nM.

On to `CC(=O)N1CCc2nc(Nc3ccc(-c4cnco4)cc3)nc(N(CCO)c3ccccc3)c2C1` [Example 28, 1-(4-((2-Hydroxyethyl)(phenyl)amino)-2-(4-(oxazol-5-yl)phenylamino)-7,8-dihydropyrido[4,3-d]pyrimidin-6(5H)-yl)ethanone], for which the IC50 is 794 nM.

In the case of `CC(=O)N1CCc2nc(Nc3ccc(-c4cnco4)cc3)nc(Nc3cccc(CO)c3)c2C1` [Example 29, 1-(4-(3-(Hydroxymethyl)phenylamino)-2-(4-(oxazol-5-yl)phenylamino)-7,8-dihydropyrido[4,3-d]pyrimidin-6(5H)-yl)ethanone], the IC50 is 631 nM. As to `CC(=O)N1CCc2nc(Nc3ccc(-c4cnco4)cc3)nc(N3c4ccccc4C[C@H]3CO)c2C1` [Example 30], the IC50 is 1000 nM. Consider `CC(=O)N1CCc2nc(Nc3ccc(-c4cnco4)cc3)nc(N(CCC#N)C3CC3)c2C1` [Example 31, 3-((6-Acetyl-2-(4-(oxazol-5-yl)phenylamino)-5,6,7,8-tetrahydropyrido[4,3-d]pyrimidin-4-yl)(cyclopropyl)amino)propanenitrile], for which the IC50 was 794 nM. The result for `CC(=O)N1CCc2nc(Nc3ccc(-c4cnco4)cc3)nc(N(CCO)Cc3ccccc3)c2C1` [Example 32, 1-(4-(Benzyl(2-hydroxyethyl)amino)-2-(4-(oxazol-5-yl)phenylamino)-7,8-dihydropyrido[4,3-d]pyrimidin-6(5H)-yl)ethanone] reads 794 nM; that for `CC(=O)c1cccc(Nc2nc(Nc3ccc(-c4cnco4)cc3)nc3c2CN(C(C)=O)CC3)c1` [Example 33, 1-(3-(6-Acetyl-2-(4-(oxazol-5-yl)phenylamino)-5,6,7,8-tetrahydropyrido[4,3-d]pyrimidin-4-ylamino)phenyl)ethanone], 1260 nM. For `CC(=O)N1CCc2nc(Nc3ccc(-c4cnco4)cc3)nc(N(C)CC(O)c3ccccc3)c2C1` (centres unmarked) [Example 34, 1-(4-((2-Hydroxy-2-phenylethyl)(methyl)amino)-2-(4-(oxazol-5-yl)phenylamino)-7,8-dihydropyrido[4,3-d]pyrimidin-6(5H)-yl)ethanone], the IC50 was 3160 nM.

Turning to `CC(=O)N1CCc2nc(Nc3ccc(-c4cnco4)cc3)nc(NC3(CO)CCCC3)c2C1` [Example 35, 1-(4-(1-(Hydroxymethyl)cyclopentylamino)-2-(4-(oxazol-5-yl)phenylamino)-7,8-dihydropyrido[4,3-d]pyrimidin-6(5H)-yl)ethanone], the IC50 was 3160 nM.

As for `CC(=O)N1CCc2nc(Nc3ccc(-c4cnco4)cc3)nc(N(C)Cc3cccnc3)c2C1` [Example 36, 1-(4-(Methyl(pyridin-3-ylmethyl)amino)-2-(4-(oxazol-5-yl)phenylamino)-7,8-dihydropyrido[4,3-d]pyrimidin-6(5H)-yl)ethanone], the IC50 was 5010 nM. With `CC(=O)N1CCc2nc(Nc3ccc(-c4cnco4)cc3)nc(N3c4ccccc4C[C@@H]3CO)c2C1` [Example 37] the figure was 10000 nM; with `CN1CCc2nc(Nc3ccc(-c4cnn(C)c4)cc3)nc(N(CCO)c3ccccc3)c2C1` [Example 38, 2-((6-Methyl-2-(4-(1-methyl-1H-pyrazol-4-yl)phenylamino)-5,6,7,8-tetrahydropyrido[4,3-d]pyrimidin-4-yl)(phenyl)amino)ethanol], 398 nM.

`CCCN1CCc2nc(Nc3ccc(-c4cnn(C)c4)cc3)nc(N(CCO)c3ccccc3)c2C1` [Example 39, 2-((2-(4-(1-Methyl-1H-pyrazol-4-yl)phenylamino)-6-propyl-5,6,7,8-tetrahydropyrido[4,3-d]pyrimidin-4-yl)(phenyl)amino)ethanol]: the IC50 is 158 nM. For `Cc1nccn1-c1ccc(Nc2nc3c(c(Cc4ccccc4)n2)CN(CCO)CC3)cc1` [Example 41, 2-(4-Benzyl-2-(4-(2-methyl-1H-imidazol-1-yl)phenylamino)-7,8-dihydropyrido[4,3-d]pyrimidin-6(5H)-yl)ethanol], the IC50 is 200 nM. In the case of `Cc1nccn1-c1ccc(Nc2nc3c(c(Cc4ccccc4)n2)CN(C)CC3)cc1` [Example 42, 4-Benzyl-6-methyl-N-(4-(2-methyl-1H-imidazol-1-yl)phenyl)-5,6,7,8-tetrahydropyrido[4,3-d]pyrimidin-2-amine], the IC50 is 398 nM. In the case of `COc1cc(Nc2nc3c(c(Cc4ccccc4)n2)COCC3)ccc1-n1cnc(C)c1` [Example 43, 4-Benzyl-N-(3-methoxy-4-(4-methyl-1H-imidazol-1-yl)phenyl)-7,8-dihydro-5H-pyrano[4,3-d]pyrimidin-2-amine], the IC50 is 63.1 nM.

With `COc1cc(Nc2nc3c(c(Cc4ccc(F)cc4)n2)C[S+]([O-])CC3)ccc1-n1cnc(C)c1` (centres unmarked) [Example 44, 4-(4-Fluorobenzyl)-N-[3-methoxy-4-(4-methyl-1H-imidazol-1-yl)phenyl]-7,8-dihydro-5H-thiopyrano[4,3-d]pyrimidin-2-amine 6-oxide], the IC50 is 79.4 nM.

Turning to `Cc1nccn1-c1ccc(Nc2nc3c(c(Cc4ccccc4)n2)COCC3)cc1` [Example 45, 4-Benzyl-N-(4-(2-methyl-1H-imidazol-1-yl)phenyl)-7,8-dihydro-5H-pyrano[4,3-d]pyrimidin-2-amine], the IC50 is 631 nM. Regarding `Cc1nccn1-c1ccc(Nc2nc3c(c(CC4CCOCC4)n2)CSCC3)cc1` [Example 46, N-(4-(2-Methyl-1H-imidazol-1-yl)phenyl)-4-((tetrahydro-2H-pyran-4-yl)methyl)-7,8-dihydro-5H-thiopyrano[4,3-d]pyrimidin-2-amine], the IC50 was 1580 nM. As for `Cc1nccn1-c1ccc(Nc2nc(CCC3CCCCC3)c3c(n2)CCN(CCO)C3)cc1` [Example 47, 2-(4-(2-Cyclohexylethyl)-2-(4-(2-methyl-1H-imidazol-1-yl)phenylamino)-7,8-dihydropyrido[4,3-d]pyrimidin-6(5H)-yl)ethanol], the IC50 was 79.4 nM. The result for `Cc1ccc(Cc2nc(Nc3ccc(-n4ccnc4C)cc3)nc3c2CN(CCO)CC3)cc1` [Example 48, 2-(2-(4-(2-Methyl-1H-imidazol-1-yl)phenylamino)-4-(4-methylbenzyl)-7,8-dihydropyrido[4,3-d]pyrimidin-6(5H)-yl)ethanol] reads 200 nM. Turning to `Cc1nccn1-c1ccc(Nc2nc(CCc3cccc(F)c3)c3c(n2)CCN(CCO)C3)cc1` [Example 49, 2-(4-(3-Fluorophenethyl)-2-(4-(2-methyl-1H-imidazol-1-yl)phenylamino)-7,8-dihydropyrido[4,3-d]pyrimidin-6(5H)-yl)ethanol], the IC50 was 251 nM. For `Cc1ccc(Cc2nc(Nc3ccc(-n4ccnc4C)cc3)nc3c2CN(C)CC3)cc1` [Example 50, 6-Methyl-N-(4-(2-methyl-1H-imidazol-1-yl)phenyl)-4-(4-methylbenzyl)-5,6,7,8-tetrahydropyrido[4,3-d]pyrimidin-2-amine], the concentration for half-maximal inhibition (IC50) is 251 nM.

For `Cc1nccn1-c1ccc(Nc2nc(CCc3cccc(F)c3)c3c(n2)CCN(C)C3)cc1` [Example 51, 4-(3-Fluorophenethyl)-6-methyl-N-(4-(2-methyl-1H-imidazol-1-yl)phenyl)-5,6,7,8-tetrahydropyrido[4,3-d]pyrimidin-2-amine], the IC50 was 251 nM. The result for `Cc1nccn1-c1ccc(Nc2nc3c(c(Cc4ccccc4F)n2)CN(C)CC3)cc1` [Example 52, 4-(2-Fluorobenzyl)-6-methyl-N-(4-(2-methyl-1H-imidazol-1-yl)phenyl)-5,6,7,8-tetrahydropyrido[4,3-d]pyrimidin-2-amine] reads 316 nM.

For the molecule `COc1cccc(Cc2nc(Nc3ccc(-n4ccnc4C)cc3)nc3c2CN(C)CC3)c1` [Example 53, 4-(3-Methoxybenzyl)-6-methyl-N-(4-(2-methyl-1H-imidazol-1-yl)phenyl)-5,6,7,8-tetrahydropyrido[4,3-d]pyrimidin-2-amine], the IC50 was 316 nM. Consider `Cc1nccn1-c1ccc(Nc2nc(CCC3CCCCC3)c3c(n2)CCN(C)C3)cc1` [Example 54, 4-(2-Cyclohexylethyl)-6-methyl-N-(4-(2-methyl-1H-imidazol-1-yl)phenyl)-5,6,7,8-tetrahydropyrido[4,3-d]pyrimidin-2-amine], for which the IC50 is 316 nM.

On to `Cc1nccn1-c1ccc(Nc2nc3c(c(CC4CCCC4)n2)CN(C)CC3)cc1` [Example 55, 4-(Cyclopentylmethyl)-6-methyl-N-(4-(2-methyl-1H-imidazol-1-yl)phenyl)-5,6,7,8-tetrahydropyrido[4,3-d]pyrimidin-2-amine], for which the IC50 is 316 nM. With `Cc1nccn1-c1ccc(Nc2nc3c(c(Cc4ccccc4F)n2)CN(CCO)CC3)cc1` [Example 56, 2-(4-(2-Fluorobenzyl)-2-(4-(2-methyl-1H-imidazol-1-yl)phenylamino)-7,8-dihydropyrido[4,3-d]pyrimidin-6(5H)-yl)ethanol] the figure was 398 nM.
